Experimental data taken from patent US12168673B2 (Mitopower, Inc., priority 2022, dated 2024).

Assays:
[1] = Human hepatocyte clearance; assay type: in vitro ADME; details: human hepatocytes
Procedure: A hepatocyte vial was taken out from the liquid nitrogen tank and was thawed in a water bath maintained at 37° C. The thawed cell suspension was transferred into a torsion tube containing 50 mL of thawing media (Xenotech). The thawing media containing hepatocytes was centrifuged at 1000 rpm for 5 min, the supernatant was discarded and the pellet was resuspended in 2 ml of Xenotech OptiIncubate Media. The cells were counted by using a haemocytometer after mixing an aliquot of cell suspension with equal volume of trypan blue. The cell suspension was diluted to a working density of 2 million cells with DMEM media without FBS/incubation media.
The assay was performed in duplicates (n=2). 150 μL of 2 million cell working stock of hepatocyte cell suspension was added to a 24 well plate and incubated in a 37° C. incubator, with speed of 500 RPM for 10 min. 150 μL of 2 μM working stock of test compound was incubated separately. The reaction at 0, 15, 30, 60 and 90 min was stopped by precipitating 20 μL of incubation mixture with 200 μL of acetonitrile containing internal standard. […] The supernatant was separated and diluted 1:1 with water before injecting in LC-MS/MS analysis.

[2] = Stability in solutions (pH range, simulated gastric fluid, simulated intestinal fluid); assay type: physicochemical
Procedure: 1 mg/ml solutions of compound 100 were prepared in each buffer, diluted to 0.1 mg/ml in methanol at each time point and analyzed as follows: Gemini C-18, 250×4.6 mm, 5 im, Mobile Phase: Methanol Isocratic Flow Rate: 0.4 mL/min.

[3] = test system: Jurkat Cells; assay: Cellular NAD+ levels in Jurkat cells (LCMS/MS); assay type: cell-based; details: 30 μM, four hours of incubation
Procedure: Compounds 100, 101 and 102 were weighted out to prepare 60 μM stock solutions in RPMI media. 200 ng/mL solution of Rac-tenofovir d6 (Vivan Life-Sciences) was prepared in methanol (MeOH) and placed at −20° C. until use.
Jurkat Cells, sourced from NCCS Pune, were cultured in RPMI media containing FBS & Antibiotics. Cells from different flasks (90% confluent) were pooled into a 15 mL conical tube and centrifuged for 5 mins at 1200 rpm for 5 mins. The supernatant solution was discarded, and the pellet was washed with 5 mL sterile PBS (without Ca^2+ & Mg^2+). The tube was then centrifuged at 1200 rpm for 5 mins and the supernatant was discarded. The cell pellet was resuspended in 7 mL of RPMI media, and a cell count was done using 10 uL of the cell solution. 1.5 million cells from the cell solution were seeded into 1.5 mL microcentrifuge tubes. […] The tubes were placed in racks and gently swirled to mix the compounds into the media containing the cells. These tubes were then incubated for 4 hours in a 37° C. incubator at 5% CO2. After 4 hours of incubation the cells were spun down at 1000 rpm for 10 mins, the supernatant was discarded carefully, and cells were snap frozen in liquid nitrogen. When the samples were run, the extraction of the cells was on ice, cells were lysed using 20 uL deionized water and then ice cold 80% methanol containing the internal standard—Rac-Tenofovir D was added. The tubes were then vortexed at 2500 rpm for 8 minutes and then centrifuged at […] for 10 minutes. 150 uL of the supernatant was carefully transferred to HPLC vials and was analyzed for NAD^+ on the Abscised 4000 Q Trap LCMS/MS system. A C18, 3.5 μm, 2.1×100 mm, Bridge Column was used in the LC. The mobile phase consisted of 10 mM ammonium acetate with 0.1% acetic acid and 0.1% hexylamine as Solvent-A and 10 mM Ammonium acetate with 0.1% acetic acid and 0.1% hexylamine in 95/5 MeOH/H2O as Solvent-B. The gradient used was 0 mins-0.0% B, 0.5 mins-100% B, 1.5 mins-100% B, 3.0 mins-100% B, 3.1 mins-0.0% B, 7.0-STOP. The column flow rate was 0.5 mL/min. The sample injection volume was […].

[4] = Solid state stability (purity by UPLC); assay type: physicochemical
Procedure: Compounds 100, 101 and 102 were kept in glass vials at three different locations at temperatures of […], 2-8° C. and −20° C. in order to assess solid state stability at room temperature, refrigerated conditions and in a deep freezer. The compounds from these vials were assessed for purity by UPLC at three different timepoints 0 hrs, 24 hrs and 48 hrs. Table 2 depicts the results obtained for solid state stability at 25° C., 2-8° C. and −20° C. respectively. Purity measurements were made at 0 hrs, 24 hours and 48 hours.

## O=C(OC1O[C@H](CO)[C@@H](O)[C@H]1O)c1cccnc1 (stereo partly drawn) [Compound 100, (3R, 4S, 5R)-3,4-dihydroxy-5-(hydroxymethyl) tetrahydrofuran-2-yl nicotinate]
[1]
  half-life at 1 μM: 2.38 h
  hepatocyte CLint at 1 μM: 4.86 µL/min/1e6 cells
[2]; SGF (simulated gastric fluid), 0 h
  % remaining: 100.0%
[2]; SGF (simulated gastric fluid), 1 week
  % remaining: 43.4%
[2]; SGF (simulated gastric fluid), 1 h
  % remaining: 99.1%
[2]; SGF (simulated gastric fluid), 2 h
  % remaining: 89.2%
[2]; SGF (simulated gastric fluid), 4 h
  % remaining: 79.6%
[2]; SGF (simulated gastric fluid), 8 h
  % remaining: 65.4%
[2]; SGF (simulated gastric fluid), 24 h
  % remaining: 71.7%
[2]; SGF (simulated gastric fluid), 48 h
  % remaining: 55.0%
[2]; SIF (simulated intestinal fluid), 0 h
  % remaining: 100.0%
[2]; SIF (simulated intestinal fluid), 1 week
  % remaining: 30.7%
[2]; SIF (simulated intestinal fluid), 1 h
  % remaining: 76.4%
[2]; SIF (simulated intestinal fluid), 2 h
  % remaining: 64.5%
[2]; SIF (simulated intestinal fluid), 4 h
  % remaining: 41.4%
[2]; SIF (simulated intestinal fluid), 8 h
  % remaining: 40.5%
[2]; SIF (simulated intestinal fluid), 24 h
  % remaining: 36.7%
[2]; SIF (simulated intestinal fluid), 48 h
  % remaining: 38.7%
[2]; pH 1, 0 h
  % remaining: 100.0%
[2]; pH 1, 1 week
  % remaining: 46.5%
[2]; pH 1, 1 h
  % remaining: 100.9%
[2]; pH 1, 2 h
  % remaining: 104.8%
[2]; pH 1, 4 h
  % remaining: 80.7%
[2]; pH 1, 8 h
  % remaining: 49.0%
[2]; pH 1, 24 h
  % remaining: 53.0%
[2]; pH 1, 48 h
  % remaining: 45.6%
[2]; pH 2, 0 h
  % remaining: 100.0%
[2]; pH 2, 1 week
  % remaining: 31.9%
[2]; pH 2, 1 h
  % remaining: 91.9%
[2]; pH 2, 2 h
  % remaining: 93.8%
[2]; pH 2, 4 h
  % remaining: 93.0%
[2]; pH 2, 8 h
  % remaining: 54.8%
[2]; pH 2, 24 h
  % remaining: 28.6%
[2]; pH 2, 48 h
  % remaining: 36.0%
[2]; pH 4, 0 h
  % remaining: 100.0%
[2]; pH 4, 1 week
  % remaining: 45.4%
[2]; pH 4, 1 h
  % remaining: 95.7%
[2]; pH 4, 2 h
  % remaining: 99.2%
[2]; pH 4, 4 h
  % remaining: 97.9%
[2]; pH 4, 8 h
  % remaining: 49.0%
[2]; pH 4, 24 h
  % remaining: 42.3%
[2]; pH 4, 48 h
  % remaining: 42.9%
[2]; pH 6, 0 h
  % remaining: 100.0%
[2]; pH 6, 1 week
  % remaining: 48.1%
[2]; pH 6, 1 h
  % remaining: 92.0%
[2]; pH 6, 2 h
  % remaining: 86.4%
[2]; pH 6, 4 h
  % remaining: 70.9%
[2]; pH 6, 8 h
  % remaining: 50.4%
[2]; pH 6, 24 h
  % remaining: 55.1%
[2]; pH 6, 48 h
  % remaining: 47.7%
[2]; pH 7.4, 0 h
  % remaining: 100.0%
[2]; pH 7.4, 1 week
  % remaining: 34.2%
[2]; pH 7.4, 1 h
  % remaining: 57.1%
[2]; pH 7.4, 2 h
  % remaining: 41.1%
[2]; pH 7.4, 4 h
  % remaining: 37.5%
[2]; pH 7.4, 8 h
  % remaining: 46.3%
[2]; pH 7.4, 24 h
  % remaining: 46.0%
[2]; pH 7.4, 48 h
  % remaining: 36.6%
[2]; pH 9, 0 h
  % remaining: 100.0%
[2]; pH 9, 1 week
  % remaining: 9.2%
[2]; pH 9, 1 h
  % remaining: 17.7%
[2]; pH 9, 2 h
  % remaining: 7.8%
[2]; pH 9, 4 h
  % remaining: 7.6%
[2]; pH 9, 8 h
  % remaining: 7.5%
[2]; pH 9, 24 h
  % remaining: 6.6%
[2]; pH 9, 48 h
  % remaining: 8.1%
[3]
  NAD+ level increase compared to untreated cells: showed statistical significance in terms of NAD^+ level increases
[4]; 2-8° C., 0 hr
  Solid State Stability (% Purity): 96.29%
[4]; 2-8° C., 24 hr
  Solid State Stability (% Purity): 96.32%
[4]; 2-8° C., 48 hr
  Solid State Stability (% Purity): 96.28%
[4]; 25° C., 0 hr
  Solid State Stability (% Purity): 96.02%
[4]; 25° C., 24 hr
  Solid State Stability (% Purity): 96.23%
[4]; 25° C., 48 hr
  Solid State Stability (% Purity): 96.22%
[4]; −20° C., 0 hr
  Solid State Stability (% Purity): 96.33%
[4]; −20° C., 24 hr
  Solid State Stability (% Purity): 96.32%
[4]; −20° C., 48 hr
  Solid State Stability (% Purity): 96.49%
